target: T1, Type-1 angiotensin II receptor (Bos taurus, UniProt P25104); assay: In vitro binding affinity to angiotensin II receptor in bovine adrenal cortex; format: tissue-based; conditions: not given
T1 sequence (P25104 whole entry): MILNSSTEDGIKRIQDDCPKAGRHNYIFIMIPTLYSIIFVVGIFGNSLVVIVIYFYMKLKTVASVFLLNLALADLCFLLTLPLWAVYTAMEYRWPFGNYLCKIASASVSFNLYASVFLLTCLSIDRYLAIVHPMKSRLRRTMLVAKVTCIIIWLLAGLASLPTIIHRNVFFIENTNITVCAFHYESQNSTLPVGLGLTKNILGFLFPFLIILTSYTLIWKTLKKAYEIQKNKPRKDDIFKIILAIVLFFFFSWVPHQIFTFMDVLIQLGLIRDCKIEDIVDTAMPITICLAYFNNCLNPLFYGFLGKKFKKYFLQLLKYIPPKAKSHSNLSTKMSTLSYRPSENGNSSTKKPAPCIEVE

| SMILES | IC50 |
| --- | --- |
| CCCCc1nc2ccc([C@@H]3[C@H]4CCCN3OC4)cc2c(=O)n1Cc1ccc(-c2ccccc2-c2nnn[nH]2)cc1 | 16 nM |
| CCCCc1nc2ccc([C@H]3[C@@H]4C(=O)CC[C@@H]4ON3Cc3ccccc3)cc2c(=O)n1Cc1ccc(-c2ccccc2-c2nnn[nH]2)cc1 | 79 nM |
| CCCCc1nc2ccc([C@@H]3C[C@H]4C(c5ccc(C)cc5)=NO[C@H]4O3)cc2c(=O)n1Cc1ccc(-c2ccccc2-c2nnn[nH]2)cc1 | 105 nM |
| CCCCc1nc2ccc([C@@H]3[C@@H]4C(=O)OC[C@@H]4ON3C)cc2c(=O)n1Cc1ccc(-c2ccccc2-c2nnn[nH]2)cc1 | 150 nM |
| CCCCc1nc2ccc([C@@H]3C[C@H]4C(c5ccccc5)=NO[C@H]4O3)cc2c(=O)n1Cc1ccc(-c2ccccc2-c2nn[nH]n2)cc1 | 76 nM |
| CCCCc1nc2ccc([C@@H]3C[C@H]4CCCCN3O4)cc2c(=O)n1Cc1ccc(-c2ccccc2-c2nnn[nH]2)cc1 | 42 nM |
| CCCCc1nc2ccc([C@@H]3C[C@H](CO)ON3C)cc2c(=O)n1Cc1ccc(-c2ccccc2-c2nn[nH]n2)cc1 | 61 nM |
| CCCCc1nc2ccc([C@H]3[C@@H]4C(=O)CCC[C@@H]4ON3C)cc2c(=O)n1Cc1ccc(-c2ccccc2-c2nn[nH]n2)cc1 | 900 nM |
| CCCCc1nc2ccc([C@@H]3C[C@H]4C5CCC(C)(C)N5O[C@H]4O3)cc2c(=O)n1Cc1ccc(-c2ccccc2-c2nn[nH]n2)cc1 (stereo partly specified) | 32 nM |
| CCCCc1nc2ccc([C@@H]3[C@@H]4C(=O)OC[C@@H]4ON3Cc3ccccc3)cc2c(=O)n1Cc1ccc(-c2ccccc2-c2nn[nH]n2)cc1 | 94 nM |
| CCCCc1nc2ccc(C3=NN[C@H]4C(=O)N(C)C(=O)[C@@H]34)cc2c(=O)n1Cc1ccc(-c2ccccc2-c2nn[nH]n2)cc1 | 110 nM |
| CCCCc1nc2ccc([C@H]3OC[C@H]4[C@@H]3ON3[C@@H]4CCC3(C)C)cc2c(=O)n1Cc1ccc(-c2ccccc2-c2nnn[nH]2)cc1 | 53 nM |
| CCCCc1nc2ccc([C@H]3C[C@H](CO)ON3C)cc2c(=O)n1Cc1ccc(-c2ccccc2-c2nnn[nH]2)cc1 | 43 nM |
| CCCCc1nc2ccc([C@@H]3[C@@H]4C(=O)CC[C@@H]4ON3C)cc2c(=O)n1Cc1ccc(-c2ccccc2-c2nn[nH]n2)cc1 | 42 nM |
| CCCCc1nc2ccc([C@H]3[C@@H]4C(=O)OC[C@@H]4ON3C)cc2c(=O)n1Cc1ccc(-c2ccccc2-c2nn[nH]n2)cc1 | 68 nM |
| CCCCc1nc2ccc([C@H]3[C@@H]4CCC[C@@H]4ON3C)cc2c(=O)n1Cc1ccc(-c2ccccc2-c2nnn[nH]2)cc1 | 98 nM |
| CCCCc1nc2ccc([C@H]3C4CCCCCCC4ON3C)cc2c(=O)n1Cc1ccc(-c2ccccc2-c2nn[nH]n2)cc1 (stereo partly specified) | 180 nM |
| CCCCc1nc2ccc([C@H]3[C@@H]4C(=O)CC[C@@H]4ON3C)cc2c(=O)n1Cc1ccc(-c2ccccc2-c2nnn[nH]2)cc1 | 98 nM |
| CCCCc1nc2ccc([C@H]3[C@@H]4C(=O)OC[C@@H]4ON3Cc3ccccc3)cc2c(=O)n1Cc1ccc(-c2ccccc2-c2nnn[nH]2)cc1 | 177 nM |
| CCCCc1nc2ccc([C@H]3OC[C@@H]4ON5[C@@H](CCC5(C)C)[C@@H]43)cc2c(=O)n1Cc1ccc(-c2ccccc2-c2nn[nH]n2)cc1 | 38 nM |
| CCCCc1nc2ccc([C@H]3C4CCCC4ON3C)cc2c(=O)n1Cc1ccc(-c2ccccc2-c2nn[nH]n2)cc1 (stereo partly specified) | 154 nM |

tested on: Rattus norvegicus; assay: Decrease in Mean Arterial Blood Pressure(MABP) in Aorta […] rat model at a dose of 3 mg/kg p.o.; format: functional; conditions: route oral

| SMILES | MABP |
| --- | --- |
| CCCCc1nc2ccc(C3CCC4CCCCC4O3)cc2c(=O)n1Cc1ccc(-c2ccccc2-c2nn[nH]n2)cc1 (stereo unspecified) | 15 mmHg |
| CCCCc1nc2ccc([C@H]3[C@@H]4C(=O)OC[C@@H]4ON3C)cc2c(=O)n1Cc1ccc(-c2ccccc2-c2nn[nH]n2)cc1 | 60 mmHg |
| CCCCc1nc2ccc([C@H]3OC[C@@H]4ON5[C@@H](CCC5(C)C)[C@@H]43)cc2c(=O)n1Cc1ccc(-c2ccccc2-c2nn[nH]n2)cc1 | 45 mmHg |

tested on: not listed separately; assay: Percent blockade of the vasopressor response to A II (0.05 ug/kg i.v.) at a dose of 5 mg/kg p.o. in A II challenge model; format: functional; conditions: route oral

| SMILES | Activity |
| --- | --- |
| CCCCc1nc2ccc([C@@H]3[C@@H]4C(=O)CC[C@@H]4ON3C)cc2c(=O)n1Cc1ccc(-c2ccccc2-c2nn[nH]n2)cc1 | 95% |

tested on: not listed separately; assay: Percent blockade of the vasopressor response to A II (0.05 ug/kg i.v.) at a dose of 5 mg/kg p.o. in A II challenge model.; format: functional; conditions: route oral

| SMILES | Activity |
| --- | --- |
| CCCCc1nc2ccc([C@H]3[C@@H]4C(=O)OC[C@@H]4ON3C)cc2c(=O)n1Cc1ccc(-c2ccccc2-c2nn[nH]n2)cc1 | 95% |
